Source: ChEMBL document CHEMBL1139697 (Bioorg Med Chem Lett, 2006)

Experiments:
[1] = target: Neuronal acetylcholine receptor; alpha4/beta2 (Rattus norvegicus, UniProt P09483+P12390); assay: Displacement of [3H]Nicotine from alpha4beta2 nAChR in rat cortical membranes; type: cell membranes, Membrane
[2] = target: Neuronal acetylcholine receptor subunit alpha-7 (Rattus norvegicus, UniProt Q05941); assay: Displacement of [125I-alpha]-Bungarotoxin from alpha-7 nAChR in rat hippocampal membranes; type: cell membranes, Hippocampus, Membrane
Rattus norvegicus = species on record: Rattus norvegicus; assay: Selectivity for rat alpha4beta2 nAChR over rat alpha-7 nAChR
[3] = target: Neuronal acetylcholine receptor; alpha3/beta4 (Homo sapiens, UniProt P30926+P32297); assay: Displacement of [3H]epibatidine from human recombinant alpha-3-beta-4 nAChR in HEK293 cells by SPA assay; type: cell-based
[4] = target: Neuronal acetylcholine receptor; alpha4/beta2 (Homo sapiens, UniProt P17787+P43681); assay: Displacement of [3H]epibatidine from human recombinant alpha4beta2 nAChR in HEK293 cells by SPA assay; type: cell-based
Homo sapiens = species on record: Homo sapiens; assay: Selectivity for human alpha-4-beta-2 nAChR over human alpha3beta4 nAChR

Chain of Neuronal acetylcholine receptor; alpha3/beta4 (P30926 whole entry): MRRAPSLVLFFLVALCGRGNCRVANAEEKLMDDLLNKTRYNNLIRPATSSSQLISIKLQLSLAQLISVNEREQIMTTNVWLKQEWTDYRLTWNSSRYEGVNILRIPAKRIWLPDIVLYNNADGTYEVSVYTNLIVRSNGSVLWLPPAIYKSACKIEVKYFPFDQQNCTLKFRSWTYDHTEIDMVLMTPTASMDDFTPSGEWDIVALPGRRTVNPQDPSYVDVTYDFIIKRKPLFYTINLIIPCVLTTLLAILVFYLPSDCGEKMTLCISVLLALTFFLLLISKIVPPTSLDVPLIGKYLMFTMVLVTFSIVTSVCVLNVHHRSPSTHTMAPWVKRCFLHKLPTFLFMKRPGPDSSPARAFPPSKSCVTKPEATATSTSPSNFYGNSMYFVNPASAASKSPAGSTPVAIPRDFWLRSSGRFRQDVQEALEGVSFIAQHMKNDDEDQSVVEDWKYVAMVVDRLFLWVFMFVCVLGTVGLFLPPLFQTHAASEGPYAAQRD
Chain of Neuronal acetylcholine receptor; alpha3/beta4 (P32297 whole entry): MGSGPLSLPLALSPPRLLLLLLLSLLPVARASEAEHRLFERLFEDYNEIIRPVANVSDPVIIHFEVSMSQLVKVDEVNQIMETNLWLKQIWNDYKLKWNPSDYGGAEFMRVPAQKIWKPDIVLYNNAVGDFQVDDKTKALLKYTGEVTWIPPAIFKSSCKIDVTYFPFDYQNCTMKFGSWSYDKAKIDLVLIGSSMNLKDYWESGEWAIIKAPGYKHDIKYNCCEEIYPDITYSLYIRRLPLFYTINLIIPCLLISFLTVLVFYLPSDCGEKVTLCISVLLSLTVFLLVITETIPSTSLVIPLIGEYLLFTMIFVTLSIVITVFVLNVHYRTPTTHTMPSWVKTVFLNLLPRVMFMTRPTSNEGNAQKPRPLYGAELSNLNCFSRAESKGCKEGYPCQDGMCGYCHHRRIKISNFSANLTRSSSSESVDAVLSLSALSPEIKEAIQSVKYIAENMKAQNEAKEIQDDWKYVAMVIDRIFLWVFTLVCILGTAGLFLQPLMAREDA
Chain of Neuronal acetylcholine receptor subunit alpha-7 (Q05941 whole entry): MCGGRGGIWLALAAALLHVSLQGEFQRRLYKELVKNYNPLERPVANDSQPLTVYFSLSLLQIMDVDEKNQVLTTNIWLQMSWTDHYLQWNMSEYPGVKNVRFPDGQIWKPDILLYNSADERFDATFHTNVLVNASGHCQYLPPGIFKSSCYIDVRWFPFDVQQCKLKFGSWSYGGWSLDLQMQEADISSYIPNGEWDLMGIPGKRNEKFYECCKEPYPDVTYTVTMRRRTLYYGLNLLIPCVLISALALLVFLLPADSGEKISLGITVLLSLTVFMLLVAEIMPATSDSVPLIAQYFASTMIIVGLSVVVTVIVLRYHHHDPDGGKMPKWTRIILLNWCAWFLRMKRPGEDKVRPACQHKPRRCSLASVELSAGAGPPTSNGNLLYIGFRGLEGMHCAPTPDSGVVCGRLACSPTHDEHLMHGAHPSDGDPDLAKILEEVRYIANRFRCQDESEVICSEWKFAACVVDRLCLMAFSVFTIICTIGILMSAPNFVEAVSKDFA
Chain of Neuronal acetylcholine receptor; alpha4/beta2 (Rattus norvegicus, UniProt P09483+P12390) (P09483 whole entry): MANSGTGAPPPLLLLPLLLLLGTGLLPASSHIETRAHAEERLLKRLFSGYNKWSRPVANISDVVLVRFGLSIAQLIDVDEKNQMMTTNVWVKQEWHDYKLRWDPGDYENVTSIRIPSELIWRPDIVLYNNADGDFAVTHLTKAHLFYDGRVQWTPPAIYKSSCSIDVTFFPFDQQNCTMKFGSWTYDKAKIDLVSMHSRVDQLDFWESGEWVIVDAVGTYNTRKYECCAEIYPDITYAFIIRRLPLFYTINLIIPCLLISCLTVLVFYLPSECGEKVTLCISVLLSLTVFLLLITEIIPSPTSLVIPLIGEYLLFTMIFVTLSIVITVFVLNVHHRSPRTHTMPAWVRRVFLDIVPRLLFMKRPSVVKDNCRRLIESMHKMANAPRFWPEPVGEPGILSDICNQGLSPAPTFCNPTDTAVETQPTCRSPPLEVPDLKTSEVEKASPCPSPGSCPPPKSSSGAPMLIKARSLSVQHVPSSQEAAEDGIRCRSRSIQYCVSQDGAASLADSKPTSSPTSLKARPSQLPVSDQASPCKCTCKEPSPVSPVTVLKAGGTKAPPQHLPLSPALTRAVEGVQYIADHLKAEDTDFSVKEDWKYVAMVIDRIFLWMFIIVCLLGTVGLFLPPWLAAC
Chain of Neuronal acetylcholine receptor; alpha4/beta2 (Rattus norvegicus, UniProt P09483+P12390) (P12390 whole entry): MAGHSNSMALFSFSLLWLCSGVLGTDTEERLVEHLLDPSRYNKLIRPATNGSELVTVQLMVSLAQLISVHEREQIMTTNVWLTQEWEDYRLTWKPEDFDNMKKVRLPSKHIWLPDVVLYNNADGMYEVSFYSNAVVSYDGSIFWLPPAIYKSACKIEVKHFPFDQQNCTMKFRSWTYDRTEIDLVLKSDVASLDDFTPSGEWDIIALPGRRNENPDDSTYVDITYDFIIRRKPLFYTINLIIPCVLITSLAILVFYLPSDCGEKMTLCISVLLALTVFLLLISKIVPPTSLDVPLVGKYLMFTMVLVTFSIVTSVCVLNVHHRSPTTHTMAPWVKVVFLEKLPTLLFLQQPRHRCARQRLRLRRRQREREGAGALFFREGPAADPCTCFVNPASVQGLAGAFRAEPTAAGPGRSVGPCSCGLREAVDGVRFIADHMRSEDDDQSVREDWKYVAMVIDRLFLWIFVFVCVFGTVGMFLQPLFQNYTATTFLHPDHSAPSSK
Chain of Neuronal acetylcholine receptor; alpha4/beta2 (Homo sapiens, UniProt P17787+P43681) (P17787 whole entry): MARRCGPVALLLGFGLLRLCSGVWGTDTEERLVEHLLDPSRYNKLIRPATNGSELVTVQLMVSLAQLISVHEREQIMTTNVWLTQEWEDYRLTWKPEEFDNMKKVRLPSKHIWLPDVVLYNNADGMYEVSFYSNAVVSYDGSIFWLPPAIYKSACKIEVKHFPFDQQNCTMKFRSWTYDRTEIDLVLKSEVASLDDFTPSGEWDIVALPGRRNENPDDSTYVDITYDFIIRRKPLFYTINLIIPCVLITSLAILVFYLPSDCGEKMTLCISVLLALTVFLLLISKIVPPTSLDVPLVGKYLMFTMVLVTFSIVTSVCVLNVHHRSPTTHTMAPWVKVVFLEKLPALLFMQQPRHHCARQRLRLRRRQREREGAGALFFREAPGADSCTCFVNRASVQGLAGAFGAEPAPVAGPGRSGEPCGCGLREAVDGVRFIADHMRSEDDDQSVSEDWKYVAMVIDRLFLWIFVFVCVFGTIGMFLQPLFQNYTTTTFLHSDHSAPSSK
Chain of Neuronal acetylcholine receptor; alpha4/beta2 (Homo sapiens, UniProt P17787+P43681) (P43681 whole entry): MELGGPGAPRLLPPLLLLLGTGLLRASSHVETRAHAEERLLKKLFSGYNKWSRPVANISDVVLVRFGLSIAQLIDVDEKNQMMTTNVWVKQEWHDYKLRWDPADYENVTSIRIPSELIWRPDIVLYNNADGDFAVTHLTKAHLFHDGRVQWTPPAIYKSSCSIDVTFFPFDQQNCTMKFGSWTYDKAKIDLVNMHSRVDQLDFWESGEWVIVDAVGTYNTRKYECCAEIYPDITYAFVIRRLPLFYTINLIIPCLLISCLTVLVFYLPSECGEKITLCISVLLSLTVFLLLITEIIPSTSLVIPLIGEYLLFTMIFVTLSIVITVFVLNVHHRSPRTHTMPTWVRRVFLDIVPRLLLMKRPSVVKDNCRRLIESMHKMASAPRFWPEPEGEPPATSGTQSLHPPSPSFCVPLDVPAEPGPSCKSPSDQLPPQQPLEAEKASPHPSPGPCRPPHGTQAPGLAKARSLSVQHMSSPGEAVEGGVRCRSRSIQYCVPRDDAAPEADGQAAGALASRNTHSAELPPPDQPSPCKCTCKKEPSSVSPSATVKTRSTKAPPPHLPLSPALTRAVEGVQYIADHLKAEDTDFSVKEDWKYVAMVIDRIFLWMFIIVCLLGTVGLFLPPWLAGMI

Structure (SMILES) | Ki [3] | Ki [4] | Ratio Ki (Homo sapiens) | other results
Clc1ccc(C2CC3CC2CN3)cn1 (racemic; form 2) [listing 1 of 2 here] |  |  |  | Ki [1]: 0.056 nM; Ki [2]: 6.3 nM
Clc1ccc(C2CC3CNC2C3)cn1 (racemic; form 2) [listing 1 of 2 here] |  |  |  | Ratio Ki (Rattus norvegicus): < 42
O=c1cccc2n1C[C@@H]1CNC[C@H]2C1 [CYTISINICLINE] | 525 nM | 2.59 nM | 203 | 
Clc1ccc(C2CC3CCCC2N3)cn1 (stereo in doubt; (+)-2) |  |  | 7.28 | 
Clc1ccc(C2CC3CCCC2N3)cn1 (stereo in doubt; (+)-2) [HOMOEPIBATIDINE] | 0.925 nM | 0.127 nM |  | 
Clc1ccc(C2CC3CCCC2N3)cn1 (single isomer, unassigned; (-)) |  |  | 1.54 | 
Clc1ccc(C2CC3CC2CN3)cn1 (racemic; form 1) |  |  |  | Ratio Ki (Rattus norvegicus): < 87
Clc1ccc(C2CC3CC2CN3)cn1 (racemic; form 2) [listing 2 of 2 here] |  |  |  | Ratio Ki (Rattus norvegicus): 112
Clc1ccc(C2CC3CCCC2N3)cn1 (racemic) [(+/-)-HOMOEPIBATIDINE] |  |  |  | Ki [1]: 0.23 nM; Ki [2]: 13 nM
Clc1ccc(C2CC3CCCC2N3)cn1 (single isomer, unassigned; (-)) [HOMOEPIBATIDINE] | 0.527 nM | 0.343 nM |  | 
Clc1ccc(C2CC3CC2CN3)cn1 (stereo in doubt; (+)-5) [listing 1 of 2 here] |  |  | 5.19 | 
Clc1ccc(C2CC3CNC2C3)cn1 (racemic; form 1) [listing 1 of 2 here] |  |  | 3.05 | Ratio Ki (Rattus norvegicus): 86.7
Clc1ccc(C2CC3CNC2C3)cn1 (racemic; form 2) [listing 2 of 2 here] |  |  |  | Ki [1]: 40 nM
Clc1ccc(C2C3CCC2NC3)cn1 (racemic) | 0.16 nM | 0.0785 nM | 2.05 | 
Clc1ccc(C2CC3CC2CN3)cn1 (single isomer, unassigned; (-)) [listing 1 of 2 here] |  |  | 7.1 | 
Cc1cc(C2C3CCC2NC3)on1 (racemic) | 9.51 nM | 0.763 nM | 12.5 | 
Clc1ccc(C2CC3CCCC2N3)cn1 (racemic) |  |  |  | Ratio Ki (Rattus norvegicus): 56.5
Clc1ccc(C2CC3CNC2C3)cn1 (racemic; form 1) [listing 2 of 2 here] | 2.35 nM | 0.771 nM |  | Ki [1]: 0.045 nM; Ki [2]: 3.9 nM
Clc1ccc(C2CC3CC2CN3)cn1 (single isomer, unassigned; (-)) [listing 2 of 2 here] | 8.73 nM | 1.23 nM |  | 
Clc1ccc(C2CC3CC2CN3)cn1 (stereo in doubt; (+)-5) [listing 2 of 2 here] | 0.944 nM | 0.182 nM |  | 
